Test system: normal dogs that were anesthetized
Test: Hemodynamic and renal properties of intravenous LA-ANP versus ANP infusion in anesthetized normal dogs
Format: in vivo, dog
Conditions: for urinary sodium excretion: baseline 47.0±18.9; for distal fractional sodium reabsorption: baseline 97.2±0.9
Method: Studies comparing LA-ANP to ANP were performed in normal dogs that were anesthetized. Equimolar concentrations of a low dose (2 pmol/kg/min) of LA-ANP and ANP were infused intravenously, where ANP was administered at a threshold concentration required to activate cyclic guanosine monophosphate. Equimolar concentrations of a high dose of LA-ANP and ANP (33 pmol/kg/min.) were also infused intravenously. Infusion of ANP or LA-ANP for 45 minutes was performed following a 30 minute baseline period, which was preceded by a 60 minute equilibrium period. Infusion was followed by a 30 minute wash-out period and three recovery (Rec) periods of 30 minutes each. Hemodynamic and renal parameters were measured at baseline (BL), during 45 minutes of infusion, and 120 minutes post-infusion.

[1] = low dose 2 pmol/kg/min i.v., at 120 minutes post-infusion
[2] = low dose 2 pmol/kg/min i.v., during infusion

Compound: CC[C@H](C)[C@@H]1NC(=O)[C@H](CCCNC(=N)N)NC(=O)[C@H](CC(=O)O)NC(=O)[C@H](CCSC)NC(=O)[C@H](CCCNC(=N)N)NC(=O)CNC(=O)CNC(=O)[C@H](Cc2ccccc2)NC(=O)[C@@H](NC(=O)[C@H](CO)NC(=O)[C@H](CO)NC(=O)[C@H](CCCNC(=N)N)NC(=O)[C@H](CCCNC(=N)N)NC(=O)[C@H](CC(C)C)NC(=O)[C@@H](N)CO)CSSC[C@@H](C(=O)N[C@@H](CC(N)=O)C(=O)N[C@@H](CO)C(=O)N[C@@H](Cc2ccccc2)C(=O)N[C@@H](CCCNC(=N)N)C(=O)N[C@@H](Cc2ccc(O)cc2)C(=O)O)NC(=O)CNC(=O)[C@H](CC(C)C)NC(=O)CNC(=O)[C@H](CO)NC(=O)[C@H](CCC(N)=O)NC(=O)[C@H](C)NC(=O)CNC1=O [ANP, reference compound]
- natriuresis (in words) [1]: not increased
- glomerular filtration rate (in words) [2]: No change
- mean arterial pressure (in words) [2]: No change
- natriuresis (in words) [2]: not increased
- diuresis (in words) (low dose 2 pmol/kg/min i.v., with infusion): no significant change

Compound: SLRRSSCFGGRMDRIGAQSGLGCNSFRYRITA-REDKQGWA (SLRRSSCFGGRMDRIGAQSGLGCNSFRYRITAREDKQGWA; listed as Homo sapiens) [LA-ANP]
- diuretic effect as compared to ANP (equimolar i.v. infusion): greater diuretic effect
- natriuretic effect as compared to ANP (equimolar i.v. infusion): greater natriuretic effect
- glomerular filtration rate, compared to high dose of ANP (high dose 33 pmol/kg/min i.v.): increased
- mean arterial pressure, compared to high dose of ANP (high dose 33 pmol/kg/min i.v.): decreased
- urinary sodium excretion (low dose 2 pmol/kg/min i.v., at 120 minutes post-infusion, p<0.01): 119.2±34.2 μEq/min.
- distal fractional sodium reabsorption [1]: 95.3±0.9%
- urinary sodium excretion (low dose 2 pmol/kg/min i.v., during 45 min infusion, p<0.01): 88.4±17.5 μEq/min.
- glomerular filtration rate (in words) [2]: No change
- mean arterial pressure (in words) [2]: No change
- renal blood flow, compared to low dose ANP [2]: increased
- diuresis (urine flow) (low dose 2 pmol/kg/min i.v., during infusion, baseline 0.34±0.08, p<0.01): 1.08 ± 0.23 mL/min
- distal fractional sodium reabsorption [2]: 96.0±0.6%
- distal fractional sodium reabsorption, overall, compared to low dose of ANP (low dose 2 pmol/kg/min i.v., p<0.01): significantly decreased

Reference: patent US8063191B2, “Polynucleotides encoding for fusion proteins with natriuresis activity” (Mayo Foundation for Medical Education and Research, priority 2005, dated 2011)
